We go through two compounds from paper PMC4738272 (Scientific Reports, 2016).

“And” between values parts separate entries of the source, which are not always exact repeats. Equal values may be shown once. “Also recorded” adds a separate entry of the source.

Data set [1] has as its system neurons. Briefly: Neuron electrophysiology recording (patch clamp). The data set is classed as cell-based, human. The following applies: 4-organ co-culture under flow, 48 h drug treatment, day 7, vs control, DOX 5 μM, ATR 100 μM, APAP 5 mM, AMAP 5 mM; for Neuronal electrophysiology, overall effect: VPA 2 mM. From the text: Electrophysiological properties of neuron cultures where recorded on the last day of co-culture following a previously described method. Values of firing, repetitive firing, spontaneous firing, inward sodium current, outward potassium current, action potential peak voltage and the resting membrane potential, characterized the mature functionality of neurons in the in vitro system. Drug alterations of the neuronal electrophysiology are discussed in this manuscript.

In a further data set the test system is Liver. Further details: method as in Literature. To be noted: general toxic effects reported in the literature; ref Literature; cited from earlier work.
Data set [2] concerns HepG2/C3A. The data set can be described thus: Human Serum Albumin quantification (ELISA), liver fraction of 4-organ system. The following applies: 4-organ co-culture under flow, 48 h drug treatment, vs control, DOX 5 μM, ATR 100 μM, VPA 2 mM, APAP 5 mM, AMAP 5 mM. The data set is classed as cell-based. The procedure:
Human Serum Albumin (HSA) production from the liver fraction was tracked throughout the co-culture, by measuring the HSA concentration in the supernatant of the culture as it represents liver protein anabolism. Samples were collected from the exchanged medium (1.2 mL) and stored at −20 °C until analysis. One freeze-thaw cycle occurred before samples were analyzed following manufacturers’ instructions provided in the ELISA Starter Accessory Kit (Bethyl Laboratories Inc, Cat #: E101). Samples were diluted as necessary in sample conjugate/diluent buffer to ensure readings measured within the range of the standard curve. The standard curve was prepared by serial dilutions of human reference serum in sample conjugate/diluent buffer (0–1600 ng/ml).
Final HSA concentrations were calculated in an excel file by first removing the average OD reading measured for blanks from average sample and standard OD readings. Concentrations of standard dilutions were plotted against average OD values measured in XY scatter plots. A standard curve was created by adding an order of 2 polynomial trendline to XY scatter plots and selecting the option to display the equation of the trendline, as well as the R^2 value, on each scatter plot (for ease of analysis HSA sigmoidal curves were split into 3 standard curves with HSA concentration ranges of 0–200 ng/ml, 200–800 ng/ml and […]). Quadratic equations were rearranged to make X (sample HSA concentration) the unknown variant. Y values (OD values) and a/b/c constants generated from trendline equations were inputted into rearranged quadratic equations per assay. HSA concentrations calculated were corrected accordingly for any differences in culture final volumes, sample dilutions during assays and cells number.
In general terms: An ELISA detects its analyte on a solid surface through an enzyme-linked reagent.

The test system of the next data set is Cardiomyocytes. The arrangement: method as in Literature. The following applies: general toxic effects reported in the literature; ref Literature; cited from earlier work.
The subject of data set [3] is Human Skeletal Myofibers. The data set can be described thus: MTT viability of skeletal muscle module in 4-organ system. To be noted: 4-organ co-culture under flow, serum-free medium, 48 h drug treatment, day 7, vs control, DOX 5 μM, ATR 100 μM, VPA 2 mM, APAP 5 mM, AMAP 5 mM.
Text: (§1) The four organ in vitro systems were assembled, on day 0, by placing the corresponding surfaces cell side up in a specific chamber of the housing (liver coverslip into chamber 1, cardiac coverslips and cantilevers into chambers 2 and 4, muscle coverslips into chamber 5, and neuron coverslips into chamber 3 and they were then topped with the serum-free co-culture medium (1X Neurobasal Medium, 1X B27, 1X AB/AM, 1X Glutamax (all from Life Technologies)) before locking the system. Right after assembling, the medium was completely replaced with 4 mL of the co-culture defined serum-free medium and the systems placed on a rocking platform inside an incubator. Platforms were checked every day by inspecting for expected cell morphology inside the system and by replacing medium (1.2 mL total volume) from the two reservoirs (30% of the total volume was replaced) with fresh medium. Drug incubation was initiated on day 5 of the co-culture by addition of the drug through the reservoir closer to the liver chamber (no. 1), allowing a first contact of the drug with the liver. 20 μL of the drug stock solution (or vehicle) to achieve a working concentration in 4 mL of total volume in the platform was utilized. On day 6, after 24 hours of drug incubation, 6 μL of the drug stock solution (or vehicle) was added to the fresh medium exchange volume (1.2 mL). After 48 hour of drug incubation, on day 7, systems were disassembled to test organ functionality that same day. For mono-culture conditions, surfaces remained in a 12-well plated with 1 mL of the co-culture defined serum-free medium maintained by daily replacement of half volume.
(§2) Seven days after the initiation of the co-culture, viability of each organ chamber, except for neurons, was evaluated through an MTT assay. […] Cell viability was measured at 570 nm in a Synergy HT plate reader and KC4 software. The results were expressed as the percentage of cell survival relative to the control (untreated or incubated with vehicle). The neuronal fraction viability was evaluated through morphological analysis throughout the co-culture experiment as the final coverslips were used for patch-clamp electrophysiology. Phase images (10X) where obtained every day of the co-culture. Neuronal viability was evaluated by cell morphology integrity and by cell count from day 1 to day 14.
The subject of data set [4] is iPSc differentiated Cardiomyocytes. The data set can be described thus: Cardiac beating frequency from video recordings. It counts as cell-based, human. The following applies: 4-organ co-culture under flow, 48 h drug treatment, day 7, vs control; for Cardiomyocyte beating rate (beat frequency), decrease: DOX 5 μM, AMAP 5 mM; for Cardiomyocyte beating rate (beat frequency), increase: ATR 100 μM, VPA 2 mM, APAP 5 mM. How it is done:
Seven or fourteen days after the co-culture, cardiac beating frequency was quantified from video recordings of three different areas of each of the cMEA surfaces, where the cardiomyocytes culture where located. Surfaces were located in a 37 °C bath platform containing co-culture medium with 50 mM HEPES on the stage of a Zeiss Axioscope 2FS upright microscope. Beats were counted in a period of 10 s, and the average number of 3 values was obtained. Drug effect was plotted as percentage of change compared to the control conditions.

Data set [5] shares this test system. Briefly: MTT viability of cardiac module in 4-organ system. To be noted: 4-organ co-culture under flow, serum-free medium, 48 h drug treatment, day 7, vs control, DOX 5 μM, ATR 100 μM, VPA 2 mM, APAP 5 mM, AMAP 5 mM.
Text: as §1, §2
The test system of the next data set is Muscle. Further details: method as in Literature. The following applies: general toxic effects reported in the literature; ref Literature; cited from earlier work.
In data set [6] the test system is neurons. Briefly: Neuronal viability by morphological analysis and cell count in 4-organ system. To be noted: 4-organ co-culture under flow, serum-free medium, 48 h drug treatment, day 7, vs control, DOX 5 μM, ATR 100 μM, VPA 2 mM, APAP 5 mM, AMAP 5 mM.
Text: as §1, §2
The subject of data set [7] is HepG2/C3A. Briefly: MTT viability of liver module in 4-organ system. It counts as cell-based, human. To be noted: 4-organ co-culture under flow, serum-free medium, 48 h drug treatment, day 7, vs control, DOX 5 μM, ATR 100 μM, VPA 2 mM, APAP 5 mM, AMAP 5 mM.
Text: as §1, §2
In data set [8] the test system is HepG2/C3A. The data set can be described thus: Urea quantification, liver fraction of 4-organ system. It counts as cell-based, human. The following applies: 4-organ co-culture under flow, 48 h drug treatment, vs control.
The subject of data set [9] is Neurons. The arrangement: method as in Literature. To be noted: general toxic effects reported in the literature; ref Literature; cited from earlier work.
In data set [10] the test system is Human Skeletal Myofibers. The data set can be described thus: Myotube stimulated contraction (binary: contracting or not). It counts as cell-based. The following applies: 4-organ co-culture under flow, 48 h drug treatment, day 7, broad-field electrical stimulation, DOX 5 μM, ATR 100 μM, VPA 2 mM, APAP 5 mM, AMAP 5 mM. How it is done: Myotube contraction in coverslips was evaluated after the co-culture was finalized. Individual surfaces were evaluated as previously reported in the group. Drugs effects were quantify in a binary code mode, cells were or were not contracting.

For data set [11] the following is noted: cited from earlier work.
For data set [12] the following is noted: therapeutic dosages; cited from earlier work.

As to `CC(=O)Nc1cccc(O)c1` [N-Acetyl-m-aminophenol], the “Neuronal repetitive and spontaneous firing ability” value with neurons [1] was “conserved”. Besides, the “Neuronal electrophysiology, overall effect” value (“Neuronal electrophysiology” below) in the data set on neurons [1] is “Normal electrophysiology”; with neurons [1] (listed as AMAP), “no significant changes compared to the control”. Also, the “Drug effects on cell functionality, Liver, Literature” value in the data set with Liver is given as “Toxicity not reported”. The “Drug effects on cell viability, Liver, Literature” value in the data set on Liver is on record as “Toxicity not reported”. The “HSA (albumin) production, increase” value in the data set with HepG2/C3A [2] was found to be 23 ± 4%. For the same compound, the “Drug effects on cell functionality, Cardiomyocytes, Literature” value in the data set with Cardiomyocytes is “Toxicity not reported”. In addition, the “Drug effects on cell viability, Cardiomyocytes, Literature” value with Cardiomyocytes was “Toxicity not reported”. Moreover, the results for the “Skeletal muscle viability, loss” value in the data set with Human Skeletal Myofibers [3] and with Human Skeletal Myofibers [3] (listed as AMAP) were “Toxicity not observed” and “not affected”, respectively. The “Cardiomyocyte beating rate (beat frequency), decrease” value in data set [4] is 25 ± 4% decrease in beating rate; in data set [4] (listed as AMAP), 25 ± 4% and 30%. Also, the “Cardiomyocyte viability, loss” value in data set [5] was 28 ± 6% loss; in data set [5] (listed as AMAP), 28 ± 6% and 30%. The “Drug effects on cell functionality, Muscle, Literature” value in the data set with Muscle was “Toxicity not reported”. Moreover, in the data set with Muscle, the “Drug effects on cell viability, Muscle, Literature” value is listed as “Toxicity not reported”. Further, the “Neuronal cell viability, loss (cell loss by morphology/cell count)” value in the data set on neurons [6] is given as “Toxicity not observed, some increase in cell numbers but not significant”; with neurons [6] (listed as AMAP), “No significant effects; also recorded: some increase in cell numbers; also recorded: no change in viability”. In addition, the “Liver (hepatocyte) cell viability, loss” value was “Toxicity not observed” in the data set with HepG2/C3A [7] and “No significant effects” with HepG2/C3A [7] (listed as AMAP). Besides, the “Urea production, increase” value in the data set on HepG2/C3A [8] (DOX 5 μM, ATR 100 μM, APAP 5 mM, AMAP 5 mM) is listed as 138 ± 19%. In the data set on Neurons [9], the “Drug effects on cell functionality, Neurons, Literature” value is recorded as “Toxicity not reported”. Moreover, the “Drug effects on cell viability, Neurons, Literature” value with Neurons [9] is recorded as “Toxicity not reported”. Also, the entries for the “Skeletal muscle loss of contractile ability (share of cultures in which contraction ceased)” value in the data set on Human Skeletal Myofibers [10] and in the data set with Human Skeletal Myofibers [10] (listed as AMAP) were “No loss in contractile ability” and “not affected”, respectively.

Turning to `CCCC(CCC)C(=O)O` [Valproic Acid, Valproic acid], the “Concentration known to be cytotoxic in vitro” value in data set [11] is on record as “around 2 mM”. Moreover, the “Concentration detected in patient plasma” value in [12] is 300 to 700 µM. Further, the “Neuronal electrophysiology” value in the data set with neurons [1] is reported as “Normal electrophysiology”. In the data set on neurons [1] (listed as VPA), the “Neuronal electrophysiology” value was “no changes compared to the control; also recorded: maintained the electrophysiological parameters”. For the same compound, in the data set on HepG2/C3A [2], the “HSA (albumin) production, increase” value was “not affected”. Also, the “HSA (albumin) production, increase” value with HepG2/C3A [2] (listed as VPA) is listed as “no changes”. Further, in the data set on Cardiomyocytes, the “Drug effects on cell functionality, Cardiomyocytes, Literature” value is recorded as “Cardio-protective effect” and the “Drug effects on cell viability, Cardiomyocytes, Literature” value is listed as “Cardio-protective effect”. For the same compound, the “Cardiomyocyte beating rate (beat frequency), increase” value in data set [4] is 38 ± 18% increase in beating frequency. Also, the “Cardiomyocyte beating rate (beat frequency), increase” value in data set [4] (listed as VPA) amounted to 38 ± 18%. In the data set with Muscle, the “Drug effects on cell functionality, Muscle, Literature” value is “Toxicity not reported” and the “Drug effects on cell viability, Muscle, Literature” value is “Toxicity not reported”. Moreover, the “Urea production, decrease” value with HepG2/C3A [8] (VPA 2 mM) worked out at 13 ± 2%. Also, in the data set on Neurons [9], the “Drug effects on cell functionality, Neurons, Literature” value was “Toxicity not reported” and the “Drug effects on cell viability, Neurons, Literature” value is “Toxicity not reported”.
